Assay results from patent US20240228489A1, “POSITIVE ALLOSTERIC MODULATORS OF THE MUSCARINIC ACETYLCHOLINE RECEPTOR M1” (Vanderbilt University, priority 2021, published 2024).

Assays:
[1] = target: T1, human mAChR M1 (Homo sapiens, UniProt P11229); assay: mAChR M1 cell-based functional assay (calcium mobilization), agonist mode: compound alone, Emax relative to acetylcholine maximum; settings: for EC50 / Agonist Activity Human M1 EC50: human mAChR M1; for Emax: relative to the maximum for acetylcholine
T1 sequence (P11229 1-460): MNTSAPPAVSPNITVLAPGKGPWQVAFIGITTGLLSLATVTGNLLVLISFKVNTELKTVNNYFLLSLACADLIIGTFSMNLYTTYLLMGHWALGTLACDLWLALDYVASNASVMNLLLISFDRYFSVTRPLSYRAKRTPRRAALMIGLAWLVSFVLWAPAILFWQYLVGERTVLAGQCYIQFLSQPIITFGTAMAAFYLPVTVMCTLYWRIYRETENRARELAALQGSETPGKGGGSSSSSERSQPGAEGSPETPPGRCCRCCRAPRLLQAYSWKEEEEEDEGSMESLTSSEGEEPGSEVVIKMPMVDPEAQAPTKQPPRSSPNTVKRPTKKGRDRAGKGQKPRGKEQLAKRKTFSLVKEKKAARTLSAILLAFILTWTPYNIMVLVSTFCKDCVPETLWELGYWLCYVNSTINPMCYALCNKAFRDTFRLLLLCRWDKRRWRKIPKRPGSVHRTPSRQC
Method in brief: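 CHO-K1 cells stably expressing hM1 were loaded with Fluo-4 AM, and calcium flux was read as fluorescence ratio. Compound was added alone from an 11-point 1:3 curve, and the agonist response was fitted with a four-parameter logistic. Emax is expressed relative to the acetylcholine maximum.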

[2] = target: T1, human mAChR M1; assay: mAChR M1 cell-based functional assay (calcium mobilization), PAM mode: increase in the EC20 acetylcholine response
Method in brief: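 CHO-K1 cells stably expressing hM1, Fluo-4 loaded, read by FDSS calcium flux at 1 Hz. Compound (11-point 1:3 CRC) added at 4 s, EC20 acetylcholine at 144 s, EC80 at 230 s. PAM activity taken as concentration-dependent increase in EC20 ACh response, fitted by four-parameter logistic for EC50/Emax.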

SMILES | EC50 [1] | Emax [1] | EC50 [2] | Emax [2] | Agonist Activity Human M1 EC50 [1]
[2H]C1([2H])c2ncccc2C(=O)N1Cc1c(F)cc(-c2cccc3nn(C(C)C)cc23)cc1F [Compound 43, 6-(2,6-difluoro-4-(2-isopropyl-2H-indazol-4-yl)benzyl)-6,7-dihydro-5H-pyrrolo[3,4-b]pyridin-5-one-7,7-d2] | > 10 µM | 2% | 1170 nM | 86% | –
[2H]C1([2H])c2ncccc2C(=O)N1Cc1c(F)cc(-c2ccc(OC(C)C)c3nn(C)cc23)cc1F [Compound 98, 6-(2,6-difluoro-4-(7-isopropoxy-2-methyl-2H-indazol-4-yl)benzyl)-6,7-dihydro-5H-pyrrolo[3,4-b]pyridin-5-one-7,7-d2] | 8.39 µM | 21% | 286 nM | 76% | –
[2H]C1([2H])c2ncccc2C(=O)N1Cc1c(F)cc(-c2ccc(OC3CN(CCCC)C3)c3nn(C)cc23)cc1F [Compound 184, 6-(4-(7-((1-butylazetidin-3-yl)oxy)-2-methyl-2H-indazol-4-yl)-2,6-difluorobenzyl)-6,7-dihydro-5H-pyrrolo[3,4-b]pyridin-5-one-7,7-d2] | – | 5% | 512 nM | 87% | Inactive
[2H]C1([2H])c2ncccc2C(=O)N1Cc1c(F)cc(-c2cccc3nn(C)cc23)cc1N(C)C [Compound 229, 6-(2-(dimethylamino)-6-fluoro-4-(2-methyl-2H-indazol-4-yl)benzyl)-6,7-dihydro-5H-pyrrolo[3,4-b]pyridin-5-one-7,7-d2] | – | 4% | ≥ 10000 nM | 42% | Inactive
[2H]C1([2H])c2ncc(Br)cc2C(=O)N1Cc1c(F)cc(-c2cccc3nn(C)cc23)cc1F [Compound 61, 3-Bromo-6-(2,6-difluoro-4-(2-methyl-2H-indazol-4-yl)benzyl)-6,7-dihydro-5H-pyrrolo[3,4-b]pyridin-5-one-7,7-d2] | – | 8% | 1360 nM | 68% | Inactive
[2H]C1([2H])c2ncccc2C(=O)N1Cc1c(F)cc(-c2cn(C)c(=O)c3c2cnn3C)cc1F [Compound 80, 4-(3,5-difluoro-4-((5-oxo-5,7-dihydro-6H-pyrrolo[3,4-b]pyridin-6-yl-7,7-d2)methyl)phenyl)-1,6-dimethyl-1,6-dihydro-7H-pyrazolo[3,4-c]pyridin-7-one] | – | 1% | 2230 nM | 59% | Inactive
[2H]C1([2H])c2ncccc2C(=O)N1Cc1c(F)cc(-c2ccc(OC3CN(C(=O)OC(C)(C)C)C3)c3nn(C)cc23)cc1F [Compound 173, tert-butyl 3-((4-(3,5-difluoro-4-((5-oxo-5,7-dihydro-6H-pyrrolo[3,4-b]pyridin-6-yl-7,7-d2)methyl)phenyl)-2-methyl-2H-indaazol-7-yl)oxy)azetidine-1-carboxylate] | – | 2% | 1340 nM | 82% | Inactive
[2H]C1([2H])c2ncccc2C(=O)N1Cc1c(F)cc(-c2cc(OC)cc3nn(C)cc23)cc1F [Compound 90, 6-(2,6-difluoro-4-(6-methoxy-2-methyl-2H-indazol-4-yl)benzyl)-6,7-dihydro-5H-pyrrolo[3,4-b]pyridin-5-one-7,7-d2] | – | 2% | 1700 nM | 72% | Inactive
[2H]C1([2H])c2ncccc2C(=O)N1Cc1c(F)cc(-c2cccc3nn(C([2H])([2H])[2H])cc23)cc1OC [Compound 232, 6-(2-fluoro-6-methoxy-4-(2-(methyl-d3)-2H-indazol-4-yl)benzyl)-6,7-dihydro-5H-pyrrolo[3,4-b]pyridin-5-one-7,7-d2] | – | 8% | 760 nM | 80% | Inactive
[2H]C1([2H])c2ncccc2C(=O)N1Cc1c(C)cc(-c2cccc3nn(C([2H])([2H])[2H])cc23)cc1F (single isomer, unassigned) [Compound 156, 6-(2-Fluoro-6-methyl-4-(2-(methyl-d3)-2H-indazol-4-yl)benzyl)-6,7-dihydro-5H-pyrrolo[3,4-b]pyridin-5-one-7,7-d2] | 8.16 µM | 33% | 194 nM | 85% | –
[2H]C1([2H])c2ncccc2C(=O)N1Cc1c(F)cc(-c2ccc(OC(F)(F)F)c3c2cnn3C([2H])([2H])[2H])cc1F [Compound 251, 6-(2,6-difluoro-4-(1-(methyl-d3)-7-(trifluoromethoxy)-1H-indazol-4-yl)benzyl)-6,7-dihydro-5H-pyrrolo[3,4-b]pyridin-5-one-7,7-d2] | – | 2% | > 10000 nM | 12% | Inactive
[2H]C1([2H])c2ncccc2C(=O)N1Cc1c(F)cc(-c2ccc(Cl)c3nn(C([2H])([2H])[2H])cc23)cc1F [Compound 73, 6-(4-(7-chloro-2-(methyl-d3)-2H-indazol-4-yl)-2,6-difluorobenzyl)-6,7-dihydro-5H-pyrrolo[3,4-b]pyridin-5-one-7,7-d2] | – | 1% | 170 nM | 77% | Inactive
[2H]C1([2H])c2ncccc2C(=O)N1Cc1c(F)cc(-c2cccc3nn(C4COC4)cc23)cc1F [Compound 49, 6-(2,6-difluoro-4-(2-(oxetan-3-yl)-2H-indazol-4-yl)benzyl)-6,7-dihydro-5H-pyrrolo[3,4-b]pyridin-5-one-7,7-d2] | – | 2% | 848 nM | 80% | Inactive
[2H]C1([2H])c2ncccc2C(=O)N1Cc1c(F)cc(-c2cccc3nn(C)cc23)cc1C(F)(F)F [Compound 225, 6-(2-fluoro-4-(2-methyl-2H-indazol-4-yl)-6-(trifluoromethyl)benzyl)-6,7-dihydro-5H-pyrrolo[3,4-b]pyridin-5-one-7,7-d2] | – | 3% | 1370 nM | 58% | Inactive
[2H]C1([2H])c2ncccc2C(=O)N1Cc1c(F)cc(-c2cccc3nn(CC)cc23)cc1F [Compound 42, 6-(4-(2-ethyl-2H-indazol-4-yl)-2,6-difluorobenzyl)-6,7-dihydro-5H-pyrrolo[3,4-b]pyridin-5-one-7,7-d2] | > 10 µM | 13% | 371 nM | 81% | –
[2H]C1([2H])c2ncccc2C(=O)N1Cc1c(Cl)cc(-c2cccc3nn(C([2H])([2H])[2H])cc23)cc1Cl [Compound 228, 6-(2,6-dichloro-4-(2-(methyl--d3)-2H-indazol-4-yl)benzyl)-6,7-dihydro-5H-pyrrolo[3,4-b]pyridin-5-one-7,7-d2] | – | 1% | 380 nM | 60% | Inactive
[2H]C1([2H])c2ncccc2C(=O)N1Cc1c(F)cc(-c2ccc(F)c3nn(C)cc23)cc1Cl [Compound 164, 6-(2-chloro-6-fluoro-4-(7-fluoro-2-methyl-2H-indazol-4-yl)benzyl)-6,7-dihydro-5H-pyrrolo[3,4-b]pyridin-5-one-7,7-d2] | – | 3% | 476 nM | 82% | Inactive
[2H]C1([2H])c2ncccc2C(=O)N1Cc1c(F)cc(-c2cc3cn(C)nc3cc2F)cc1F [Compound 4, 6-(2,6-difluoro-4-(6-fluoro-2-methyl-2H-indazol-5-yl)benzyl)-6,7-dihydro-5H-pyrrolo[3,4-b]pyridin-5-one-7,7-d2] | – | 2% | 1060 nM | 48% | Inactive
[2H]C1([2H])c2ncccc2C(=O)N1Cc1c(F)cc(-c2cn(C)c(=O)c3nn(C([2H])([2H])[2H])cc23)cc1F [Compound 91, 4-(3,5-difluoro-4-((5-oxo-5,7-dihydro-6H-pyrrolo[3,4-b]pyridin-6-yl-7,7-d2)methyl)phenyl)-6-methyl-2-(methyl-d3)-2,6-dihydro-7H-pyrazolo[3,4-c]pyridin-7-one] | 7.74 µM | 22% | 718 nM | 84% | –
[2H]C1([2H])c2ncc(OCCc3ccccn3)cc2C(=O)N1Cc1c(F)cc(-c2cccc3nn(C([2H])([2H])[2H])cc23)cc1F [Compound 126, 6-(2,6-difluoro-4-(2-(methyl-d3)-2H-indazol-4-yl)benzyl)-3-(2-(pyridin-2-yl)ethoxy)-6,7-dihydro-5H-pyrrolo[3,4-b]pyridin-5-one-7,7-d2] | ≥ 10 µM | 14% | 423 nM | 65% | –
[2H]C1([2H])c2ncccc2C(=O)N1Cc1ccc(-c2ccc(OCC3(C#N)CC3)c3nn(C)cc23)cc1F [Compound 178, 1-(((4-(3-fluoro-4-((5-oxo-5,7-dihydro-6H-pyrrolo[3,4-b]pyridin-6-yl-7,7-d2)methyl)phenyl)-2-methyl-2H-indazol-7-yl)oxy)methyl)cyclopropane-1-carbonitrile] | – | 9% | 277 nM | 79% | Inactive
